According to patent US11013249B2, “Compositions for controlled release of volatile compounds” (University of Guelph, priority 2016, dated 2021):
Values after ≈ are worked out from the molar mass of the structure shown. Values joined by “and” are separate entries in the source; they are usually repeats but may differ in a detail not shown here. Equal entries are not always repeated. Where two headings read alike, the source gives them in different places.

Columns and labels:
[1] = Release of diacetyl and AITC vapours from PEG blends into jar headspace (automatic headspace sampling, GC); type: physicochemical; conditions: from 4:1 PEG400:PEG10K
Method: PEG400 and PEG10K were blended at 1:4, 2:3, 3:2 and 4:1 (w/w) ratios. All PEG blends (20±1 g) were heated to 90° C. in a 20 mL glass vial for 20 min to ensure the polymers were melted and thoroughly mixed with the aid of a magnetic stir bar. […] The vials were capped, kept in a 75° C. oven and continuously being stirred with the magnetic stir bar for 15 min. The molten mixtures were injected into a mould fabricated from glass (2 cm×1.5 cm×0.1 cm) and allowed to set. One face of the mould was lined with aluminum tape (adhesive side facing away from PEG), which acted as a baking material for the solidified PEG. Upon solidification, diacetyl/AITC impregnated PEG sheeting was formed.
With the aid of a controller (SRI Instruments Inc., Las Vegas, Nev., USA), the headspace air in the glass jar was sampled automatically by means of a vacuum pump and two stream selection valves (Model EMTCA-CE, VICI Valco Instruments Co. Inc., Houston, Texax, USA), and injected into a gas chromatograph equipped with flame ionization detector (GC 6890, Agilent Technologies Inc., Santa Clara, Calif., USA.). Both the detector and oven temperatures were set at 150° C. The flow rates of the carrier gas (N2), compressed air and hydrogen were 30 mL/min, 200 mL/min and 30 mL/min, respectively. Retention time and peak area were analyzed by using chromatographic software (Peak Simple 393-32 bit, SRI Instruments, Torrance, Calif., USA). After each sampling, an equal amount of dry air was injected back into the jar to maintain the interior pressure at one atmosphere.
Diacetyl or AITC release profiles were generated by plotting Mn versus time.
The release profiles of the antimicrobial compounds were fitted in a model which combines first order kinetics and zero order kinetics: C=Ce×(1−e^−kt)+αt (Eq. 3) where C is the compound concentration at time t; Ce is the equilibrium concentration for diffusion; k is the diffusion rate constant; α is the rate of zero order kinetics. Models are fitted to the data before reaching the equilibrium.

Yeast = test: Inhibitory effects of AITC, diacetyl and cinnamaldehyde vapour; type: cell-based, yeast isolated from mung bean sprouts; conditions: for Yeast day1, visual colony number / Yeast day2, visual colony number / Yeast day3, visual colony number / effective concentration against yeast: 25° C.; for MIC: read-out: minimum inhibition concentration (MIC); for effective concentration against yeast: vapour in one-liter jar
Method: (§1) P. fluorescens was selected as a model spoilage bacteria, while mould and yeast were isolated from spoiled mung bean sprouts with bacteria excluded by cultivating in potato dextrose broth (PDB) (Sigma, Oakville, ON, Canada) at pH 5.6±0.2. Yeast and P. fluorescens stocks were cultivated in PDB and trypticase soy broth (TSB) (Bacto, BD, Sparks, USA), respectively, at 30° C. for 24 h and diluted with sterile saline solution (NaCl, 8.5 g/L water) to a concentration of 10^6 CFU/mL. An aliquot of 50 μL of the prepared yeast or bacteria suspension was spread on potato dextrose agar (PDA) (Difco, BD, Sparks, USA) or trypticase soy agar (TSA) (Bacto, BD, Sparks, USA), respectively, in 5 cm diameter petri dishes (Fisher Scientific, Ottawa, ON, Canada). Mycelium of mould was inoculated as one spot at the center of the PDA dishes. Two freshly inoculated petri dishes of same microorganism, with their lids removed, were placed in a one-liter glass jar. […] The growth of the microorganisms was monitored by the colony formation for 3 days.

Mould = test: as above; type: cell-based, mould isolated from mung bean sprouts; conditions: 25° C.; for concentration that inhibited the growth of mould for three days: vapour in one-liter jar
Method: as §1

P. Fluorescens = test: as above; type: cell-based, Pseudomonas fluorescens P33; conditions: 25° C.; for effective concentration against P. fluorescens: vapour in one-liter jar
Method: as §1

[2] = cited from earlier work; for vapor pressure (volatility): 20° C.
[3] = cited from earlier work

`C=CCN=C=S` [AITC, Allyl isothiocyanate] gave a Ce ([1]; 0 μL water, 5° C.) of 0.0212 mg/L, a k ([1]; 0 μL water, 5° C.) of 0.0149 h⁻¹ and a α ([1]; 0 μL water, 5° C.) of 3.39e-06 h⁻¹. For the same compound, the Ce ([1]; 0 μL water, 25° C.) was 0.0791 mg/L, the k ([1]; 0 μL water, 25° C.) was 0.016 h⁻¹ and 0.01604 h⁻¹ and the α ([1]; 0 μL water, 25° C.) was 1.94e-05 h⁻¹. For the same compound, the “maximum released after 42 h” value ([1]; 5° C.) was 0.14 mg, the Ce ([1]; 10 μL water, 5° C.) was 0.0245 mg/L and the k ([1]; 10 μL water, 5° C.) was 0.01509 h⁻¹. It also gave a α ([1]; 10 μL water, 5° C.) of 3.63e-06 h⁻¹, a Ce ([1]; 10 μL water, 25° C.) of 0.1012 mg/L and a k ([1]; 10 μL water, 25° C.) of 0.01169 h⁻¹. The α ([1]; 10 μL water, 25° C.) was 1.76e-05 h⁻¹, the “maximum released after 42 h” value ([1]; 25° C.) was 0.47 mg and the “maximum release within 42 h” value ([1]; 25° C., 10 μL water) was 0.15 mg. The “maximum release within 42 h” value ([1]; 25° C., 100 μL water) was 0.18 mg, the “maximum release within 42 h” value ([1]; 25° C., 1000 μL water) was 0.48 mg and the “maximum release within 42 h” value ([1]; 25° C., dry condition) was 0.13 mg. It also gave a Ce ([1]; 100 μL water, 5° C.) of 0.0353 mg/L, a k ([1]; 100 μL water, 5° C.) of 0.01022 h⁻¹ and a α ([1]; 100 μL water, 5° C.) of 1.09e-05 h⁻¹. It also gave a Ce ([1]; 100 μL water, 25° C.) of 0.1523 mg/L, a k ([1]; 100 μL water, 25° C.) of 0.00896 h⁻¹ and a α ([1]; 100 μL water, 25° C.) of 1.25e-05 h⁻¹. It also gave a Ce ([1]; 1000 μL water, 5° C.) of 0.0454 mg/L, a k ([1]; 1000 μL water, 5° C.) of 0.00564 h⁻¹ and a α ([1]; 1000 μL water, 5° C.) of 3.75e-05 h⁻¹. For the same compound, the Ce ([1]; 1000 μL water, 25° C.) was 0.1365 mg/L, the k ([1]; 1000 μL water, 25° C.) was 0.009 h⁻¹ and 0.00945 h⁻¹ and the “time of reaching equilibrium of release” value ([1]; 1000 μL water, 25° C.) was “around 1300 min”. For the same compound, the α ([1]; 1000 μL water, 25° C.) was 0.00029 h⁻¹ and 0.000291 h⁻¹, the “Yeast day1, visual colony number” value (Yeast; Amount 0.1 mg in one-liter jar) was “+ (less than 15)” and the “Yeast day2, visual colony number” value (Yeast; Amount 0.1 mg in one-liter jar) was “+ (less than 15)”. The “Yeast day3, visual colony number” value (Yeast; Amount 0.1 mg in one-liter jar) was “+ (less than 15)”, the MIC (Yeast) was 0.5 mg/L (≈ 5.04 µM) and the “effective concentration against yeast” value (Yeast) was 0.5 mg/L. For the same compound, the “concentration that inhibited the growth of mould for three days” value (Mould) was 0.1 mg/L, the “P. Fluorescens day1, visual colony number” value (“P. Fluorescens day1” below) (P. Fluorescens; Amount 0.1 mg in one-liter jar) was “++ (15-50)” and the “P. Fluorescens day2, visual colony number” value (shortened to “P. Fluorescens day2”) (P. Fluorescens; Amount 0.1 mg in one-liter jar) was “++ (15-50)”. The “P. Fluorescens day1” value (P. Fluorescens; Amount 0.5 mg in one-liter jar) was “+ (less than 15)”, the “P. Fluorescens day2” value (P. Fluorescens; Amount 0.5 mg in one-liter jar) was “+ (less than 15)” and the “effective concentration against P. fluorescens” value (P. Fluorescens) was 1 mg/L. For the same compound, the Saturated vapor pressure ([2]; 5° C.) was about 140 Pa, the “vapor pressure (volatility)” value [2] was 0.49 kPa and the Saturated vapor pressure ([2]; 45° C.) was about 1500 Pa.
For `CC(=O)C(C)=O` [Diacetyl, 2,3-butanedione], the Ce ([1]; 0 μL water, 5° C.) was 0.631 mg/L, the k ([1]; 0 μL water, 5° C.) was 0.00764 h⁻¹ and the α ([1]; 0 μL water, 5° C.) was 0.000149 h⁻¹. For the same compound, the Ce ([1]; 0 μL water, 25° C.) was 1.965 mg/L, the k ([1]; 0 μL water, 25° C.) was 0.00837 h⁻¹ and the α ([1]; 0 μL water, 25° C.) was 0.000258 h⁻¹. The “maximum released after 42 h” value ([1]; 5° C.) was 1.98 mg, the Ce ([1]; 10 μL water, 5° C.) was 1.074 mg/L and the k ([1]; 10 μL water, 5° C.) was 0.00484 h⁻¹. For the same compound, the α ([1]; 10 μL water, 5° C.) was 0.000236 h⁻¹, the Ce ([1]; 10 μL water, 25° C.) was 1.701 mg/L and the k ([1]; 10 μL water, 25° C.) was 0.01425 h⁻¹. The α ([1]; 10 μL water, 25° C.) was 0.00034 h⁻¹, the “maximum released after 42 h” value ([1]; 25° C.) was 2.85 mg and the Ce ([1]; 100 μL water, 5° C.) was 1.418 mg/L. For the same compound, the k ([1]; 100 μL water, 5° C.) was 0.00159 h⁻¹, the α ([1]; 100 μL water, 5° C.) was 0.000253 h⁻¹ and the Ce ([1]; 100 μL water, 25° C.) was 1.901 mg/L. The k ([1]; 100 μL water, 25° C.) was 0.01281 h⁻¹, the α ([1]; 100 μL water, 25° C.) was 0.000272 h⁻¹ and the Ce ([1]; 1000 μL water, 5° C.) was 0.151 mg/L. The k ([1]; 1000 μL water, 5° C.) was 0.01321 h⁻¹, the α ([1]; 1000 μL water, 5° C.) was 0.000301 h⁻¹ and the Ce ([1]; 1000 μL water, 25° C.) was 2.156 mg/L. The k ([1]; 1000 μL water, 25° C.) was 0.00728 h⁻¹, the α ([1]; 1000 μL water, 25° C.) was 0.000279 h⁻¹ and the “Yeast day1, visual colony number” value (Yeast; Amount 1 mg in one-liter jar) was “+ (less than 15)”. For the same compound, the “Yeast day2, visual colony number” value (Yeast; Amount 1 mg in one-liter jar) was “+ (less than 15)”, the “Yeast day3, visual colony number” value (Yeast; Amount 1 mg in one-liter jar) was “+ (less than 15)” and the “Yeast day1, visual colony number” value (Yeast; Amount 2 mg in one-liter jar) was “+ (less than 15)”. For the same compound, the “Yeast day2, visual colony number” value (Yeast; Amount 2 mg in one-liter jar) was “+ (less than 15)”, the “Yeast day3, visual colony number” value (Yeast; Amount 2 mg in one-liter jar) was “+ (less than 15)” and the “Yeast day2, visual colony number” value (Yeast; Amount 3 mg in one-liter jar) was “+ (less than 15)”. For the same compound, the “Yeast day3, visual colony number” value (Yeast; Amount 3 mg in one-liter jar) was “+ (less than 15)”, the MIC (Yeast; established on yeast, mould and P. fluorescens from Table 8) was 4 mg/L (≈ 46.5 µM) and the “effective concentration against yeast” value (Yeast) was 4 mg/L. For the same compound, the “Mould day1, visual colony number” value (Mould; Amount 1 mg in one-liter jar) was “+ (less than 15)”, the “Mould day2, visual colony number” value (Mould; Amount 1 mg in one-liter jar) was “+ (less than 15)” and the “Mould day3, visual colony number” value (Mould; Amount 1 mg in one-liter jar) was “+ (less than 15)”. For the same compound, the “concentration that inhibited the growth of mould for three days” value (Mould) was 2 mg/L, the “P. Fluorescens day1” value (P. Fluorescens; Amount 1 mg in one-liter jar) was “+ (less than 15)” and the “P. Fluorescens day2” value (P. Fluorescens; Amount 1 mg in one-liter jar) was “+ (less than 15)”. For the same compound, the “effective concentration against P. fluorescens” value (P. Fluorescens) was 2 mg/L, the Saturated vapor pressure ([2]; 5° C.) was about 2400 Pa and the “vapor pressure (volatility)” value [2] was 6.9 kPa. The Saturated vapor pressure ([2]; 45° C.) was about 20100 Pa.
In the case of `Cc1ccc(C(C)C)cc1O` [carvacrol, 5-isopropyl-2-methylphenol], the vapor pressure ([2]; 22° C.) is given as 0.0042 kPa, the vapor pressure ([2]; 25° C.) is given as 0.0087 kPa and the “solubility in water” value [3] is given as “low solubility in water”.
